Measurements published in patent US10472341B2, “Bicyclic tetrahydrothiazepine derivatives useful for the treatment of neoplastic and/or infectious diseases” (APEIRON BIOLOGICS AG, priority 2015, dated 2019).
Read-outs that look alike come from different tables or passages of the source.

Tests used:
[1] = test system: CD4 T cells, CD8 T cells and NK cells of B16-F10-OVA tumor bearing mice; test: Immune modulation of B16-F10-OVA tumor bearing mice: activation markers in tumor draining lymph nodes (flow cytometry); type: in vivo, mouse; conditions: day 15
Description: (§1) • Single cell suspension of splenocytes was prepared from the spleen by rinsing cells through a sterile 70 μm filter with PBS • Cells were collected by centrifugation in an 15 ml tube, the cell pellet was resuspended in 1 ml of Erylyse buffer and incubated at room temperature for 5 minutes, tubes were filled up with PBS and cells were washed twice • Cells were counted and resuspended in the desired buffer volume for MACS-enrichment or flow cytometric analysis Isolation of CD4 T Cells from OT-II Transgenic Mice • Splenocytes were resuspended in MACS buffer ([…] MACS-buffer/10^7 cells) • CD4 T cells were isolated using the CD4 T cell isolation kit (Miltenyi) with LS-columns following manufacturer's recommendations CFSE-Labeling of T Cells • Cells were resuspended in PBS with 0.1% BSA at 1×10^7 cells/ml and CFSE-solution was added to final concentration of 2.5 μM CFSE • Incubated for 10 min at 37° C., swung each 2 min • Same volume of FCS added and incubated for 5 min at room temperature • Cells were washed twice with RMPI-10% FCS medium • Cells were counted and resuspended in PBS or medium at desired concentration OT-II Transfer • Day 0: OT-II cells were transferred in PBS (3*10^6. Cells in 100 μl PBS) by retro-orbital injection • Day 1: WT mice got OVA vaccinated (subcut. flank, 10 μg LPS, 2 μg OVA per animal) • 2 & 4 h later compounds were administrated; for oral dosing compound was used as suspension (0.5% methylcellulose in water), for i.v. dosing compound was solubilized in DMSO and diluted with PBS • Day 2: compounds were administrated twice in the morning (with 2 h time interval) • Day 3: Mice were sacrificed & splenocytes were isolated • T cell proliferation & phenotype was determined by flow cytometry • Flow cytometry-Staining (all Abs purchased from eBioscience and used as recommended by the manufacturer): B220-eF450, CD4-PE, CD25PerCPCy5.5, CD69-PC7, TCRVa2-APC, CD8-AF700, CD3-eF780; CFSE; 7-AAD • Acquisition on Beckman-Coulter Gallios, Analysis using Kaluza Software OT-I Transfer to Mice with B16-F10-OVA Tumors • Day 0: 100000 B16-F10-OVA tumor cells were inoculated subcutaneously at the flank of WT-mice • Day 7: OT-I cells were transferred in PBS (3*10^6. […]

B16-F10-OVA tumors = test: Immune modulation of B16-F10-OVA tumor bearing mice: tumor infiltration by immune cells (quantitative RT-PCR); type: in vivo, mouse; conditions: tumor mRNA
Description: as §1

non-stimulated PBMCs = test: Non-stimulated PBMCs: cytokine secretion and signs of T-cell activation; type: cell-based, human
Description: This is an important finding for compounds that shall selectively act on T cells which have been activated by presence of antigen from pathogens or tumors, but shall not lead to an unwanted general activation of all T cells of a patient.

[2] = test system: aCD3/aCD28-stimulated human PBMCs; test: Cytokine production in aCD3/aCD28 stimulated human PBMCs; type: cell-based; conditions: PBMC, 18 h
Method in brief: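 Compound effects measured in buffy-coat PBMCs activated 18 h at 37° C by 1 μg/mL each of soluble anti-CD3 (OKT3) and anti-CD28 (28.2), 1e6 cells/mL. Cytokines in harvested supernatants read by MSD or HTRF.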

CD4 T cells = test: CD69 expression on aCD3/aCD28 stimulated isolated human CD4 T cells (flow cytometry); type: cell-based; conditions: 24 h after TCR stimulation, read-out: Activity Class CD69 (CD4)
Method in brief: (§2)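 Isolated CD4 and CD8 T cells plated at 80000 cells per well in Xvivo medium and stimulated with anti-CD3/28 mAbs in presence of compound. CD69 expression measured by flow cytometry 24 h after TCR stimulation.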

CD8 T cells = test: CD69 expression on aCD3/aCD28 stimulated isolated human CD8 T cells (flow cytometry); type: cell-based; conditions: T-cell, 24 h after TCR stimulation, read-out: Activity Class CD69 (CD8)
Method in brief: as §2

[3] = test system: aCD3/aCD28-stimulated human CD4+-T-cells; test: IL-2 production and activation markers in aCD3/aCD28 stimulated isolated human CD4+-T-cells; type: cell-based; conditions: IL-2 production at 3 μM compound
Method in brief: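 CD4+ T cells isolated from buffy-coat PBMCs by microbeads were plated in Xvivo medium (1.5*10^5 cells/well) and stimulated with anti-CD3/28 mAbs plus compound. IL-2 measured by ELISA in supernatants at 24 h or 48 h; CD25 and proliferation by flow cytometry, CD69 at 24 h. Activity classes based on IL-2 at 3 μM compound.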

OT-II cells = test: OT-II transfer model, oral administration: antigen-specific T cell proliferation and CD69; type: in vivo, mouse; conditions: LPS & OVA; 10 mg/kg dosed orally
Description: as §1

[4] = enhancement of IFN-γ production, read-out: Activity Class IFN-γ
[5] = enhancement of IL-2 production, read-out: Activity Class IL-2

`N[C@H]1CS(=O)(=O)c2cc(F)c(C(=O)NC3CC3(F)F)cc2N(Cc2ccc(Cl)cc2)C1=O` (stereo partly drawn) [Compound Ex. 1] was tested, and the “Average CD25+ cells” value ([1]; CD4 T cells, 10 mg/kg orally) was 15.63 % gated, the “Average CD69+ cells” value ([1]; CD4 T cells, 10 mg/kg orally) was 13.34 % gated and the “Average CD107a+ cells” value ([1]; CD4 T cells, 10 mg/kg orally) was 5.03 % gated. For the same compound, the “Average PD1+ cells” value ([1]; CD4 T cells, 10 mg/kg orally) was 10.73 % gated, the “Average CD25+ cells” value ([1]; CD4 T cells, 30 mg/kg orally) was 15.91 % gated and the “Average CD69+ cells” value ([1]; CD4 T cells, 30 mg/kg orally) was 14.25 % gated. For the same compound, the “Average CD107a+ cells” value ([1]; CD4 T cells, 30 mg/kg orally) was 5.43 % gated, the “Average PD1+ cells” value ([1]; CD4 T cells, 30 mg/kg orally) was 10.36 % gated and the “Average CD25+ cells” value ([1]; CD8 T cells, 10 mg/kg orally) was 1.95 % gated. For the same compound, the “Average CD69+ cells” value ([1]; CD8 T cells, 10 mg/kg orally) was 5.25 % gated, the “Average CD107a+ cells” value ([1]; CD8 T cells, 10 mg/kg orally) was 2.00 % gated and the “Average PD1+ cells” value ([1]; CD8 T cells, 10 mg/kg orally) was 3.12 % gated. For the same compound, the “Average CD25+ cells” value ([1]; CD8 T cells, 30 mg/kg orally) was 2.88 % gated, the “Average CD69+ cells” value ([1]; CD8 T cells, 30 mg/kg orally) was 5.91 % gated and the “Average CD107a+ cells” value ([1]; CD8 T cells, 30 mg/kg orally) was 4.24 % gated. The “Average PD1+ cells” value ([1]; CD8 T cells, 30 mg/kg orally) was 6.71 % gated, the “Average CD69+ cells” value ([1]; NK cells, 10 mg/kg orally) was 34.43 % gated and the “Average CD107a+ cells” value ([1]; NK cells, 10 mg/kg orally) was 12.85 % gated. The “Average PD1+ cells” value ([1]; NK cells, 10 mg/kg orally) was 19.91 % gated, the “Average CD69+ cells” value ([1]; NK cells, 30 mg/kg orally) was 32.55 % gated and the “Average CD107a+ cells” value ([1]; NK cells, 30 mg/kg orally) was 10.98 % gated. The “Average PD1+ cells” value ([1]; NK cells, 30 mg/kg orally) was 13.61 % gated, the “Average CD4 expression” value (B16-F10-OVA tumors; 10 mg/kg orally) was 7.07 EF1a * 10^4 and the “Average CD8 expression” value (B16-F10-OVA tumors; 10 mg/kg orally) was 6.28 EF1a * 10^4. The “Average IFN-g expression” value (B16-F10-OVA tumors; 10 mg/kg orally) was 0.75 EF1a * 10^4, the “Average IL-2 expression” value (B16-F10-OVA tumors; 10 mg/kg orally) was 0.043 EF1a * 10^4 and the “Average IL-12 expression” value (B16-F10-OVA tumors; 10 mg/kg orally) was 0.074 EF1a * 10^4. The “Average IL-23 expression” value (B16-F10-OVA tumors; 10 mg/kg orally) was 0.480 EF1a * 10^4, the “Average Ratio Eomes/Foxp3” value (B16-F10-OVA tumors; 10 mg/kg orally) was 0.66 and the “Average Ratio Rorgc/Foxp3” value (B16-F10-OVA tumors; 10 mg/kg orally) was 5.38. The “Average Ratio T-bet/Foxp3” value (B16-F10-OVA tumors; 10 mg/kg orally) was 8.35, the “Average TNF-a expression” value (B16-F10-OVA tumors; 10 mg/kg orally) was 9.96 EF1a * 10^4 and the “Average CD4 expression” value (B16-F10-OVA tumors; 30 mg/kg orally) was 9.65 EF1a * 10^4. The “Average CD8 expression” value (B16-F10-OVA tumors; 30 mg/kg orally) was 10.72 EF1a * 10^4, the “Average IFN-g expression” value (B16-F10-OVA tumors; 30 mg/kg orally) was 1.23 EF1a * 10^4 and the “Average IL-2 expression” value (B16-F10-OVA tumors; 30 mg/kg orally) was 0.085 EF1a * 10^4. For the same compound, the “Average IL-12 expression” value (B16-F10-OVA tumors; 30 mg/kg orally) was 0.120 EF1a * 10^4, the “Average IL-23 expression” value (B16-F10-OVA tumors; 30 mg/kg orally) was 0.611 EF1a * 10^4 and the “Average Ratio Eomes/Foxp3” value (B16-F10-OVA tumors; 30 mg/kg orally) was 0.64. The “Average Ratio Rorgc/Foxp3” value (B16-F10-OVA tumors; 30 mg/kg orally) was 6.17, the “Average Ratio T-bet/Foxp3” value (B16-F10-OVA tumors; 30 mg/kg orally) was 9.59 and the “Average TNF-a expression” value (B16-F10-OVA tumors; 30 mg/kg orally) was 14.97 EF1a * 10^4.

In the case of `CC(=O)NCCCCCOc1ccc(CNC(=O)c2ccc3c(c2)N(Cc2ccc(Cl)cc2)C(=O)[C@@H](N)CS3(=O)=O)cc1.Cl` [Example 78, (3R)-3-amino-5-[(4-chlorophenyl)methyl]-N-({4-[(5-acetamidopentyl)oxy]phenyl}-methyl)-1,1,4-trioxo-2,3,4,5-tetrahydro-1λ^6,5-benzothiazepine-7-carboxamide hydrochloride], the “cytokine secretion or other signs of T-cell activation” value (non-stimulated PBMCs) is reported as “did not enhance cytokine secretion or other signs of T-cell activation”, the EC50 [2, 4] is reported as < 1580 nM and the EC50 [2, 5] is reported as < 1580 nM.

`Cl.N[C@H]1CS(=O)(=O)c2cc(F)c(C(=O)NCc3ccc(F)cc3)cc2N(Cc2ccc(Cl)cc2)C1=O` [Example 68, (3R)-3-amino-5-[(4-chlorophenyl)methyl]-8-fluoro-N-[(4-fluorophenyl)methyl]-1,1,4-trioxo-2,3,4,5-tetrahydro-1λ^6,5-benzothiazepine-7-carboxamide hydrochloride] was tested, and the EC50 [2, 4] was < 1580 nM, the EC50 [2, 5] was < 1580 nM and the EC50 (CD4 T cells) was < 1580 nM. The EC50 (CD8 T cells) was < 1580 nM and the “Activity Class CD4+” value [3] was “A (IL-2 production at 3 μM compound concentration >10 ng/mL)”.

`Cl.N[C@H]1CS(=O)(=O)c2cc(F)c(C(=O)NC3CCC(F)(F)C3)cc2N(Cc2ccc(Cl)cc2)C1=O` (stereo partly drawn) [Example 105, (3R)-3-amino-5-[(4-chlorophenyl)methyl]-N-(3,3-difluorocyclopentyl)-8-fluoro-1,1,4-trioxo-2,3,4,5-tetrahydro-1λ^6,5-benzothiazepine-7-carboxamide hydrochloride] was tested, and the EC50 [2, 4] was < 1580 nM, the EC50 [2, 5] was < 1580 nM and the EC50 (CD4 T cells) was < 1580 nM. The EC50 (CD8 T cells) was < 1580 nM and the “Activity Class CD4+” value [3] was “A (IL-2 production at 3 μM compound concentration >10 ng/mL)”.

With `N[C@H]1CS(=O)(=O)c2cc(F)c(C(=O)NC3CC3(F)F)cc2N(Cc2ccc(Cl)cc2)C1=O` (stereo partly drawn) [compound ex. 1] the “CD69+ cells, B cells of recipient animal” value (OT-II cells) was 2.10 % gated, the “CD69+ cells, CD8 T cells of recipient animal” value (OT-II cells) was 3.48 % gated and the “CD69+ cells, WT CD4 T cells of recipient animal” value (OT-II cells) was 7.00 % gated. The “CD69+ cells, transferred OT-II cells” value (OT-II cells) was 46.92 % gated.

In the case of `Cl.N[C@H]1CS(=O)(=O)c2cc(F)c(C(=O)NCC3CCOCC3)cc2N(Cc2ccc(OC(F)(F)F)cc2)C1=O` [Example 72, (3R)-3-amino-8-fluoro-N-(oxan-4-ylmethyl)-1,1,4-trioxo-5-{[4-(trifluoromethoxy)-phenyl]methyl}-2,3,4,5-tetrahydro-1λ^6,5-benzothiazepine-7-carboxamide hydrochloride], the EC50 [2, 4] is reported as < 1580 nM, the EC50 [2, 5] is reported as < 1580 nM and the EC50 (CD4 T cells) is reported as < 1580 nM. For the same compound, the EC50 (CD8 T cells) was 1580 to 5010 nM and the “Activity Class CD4+” value [3] was “A (IL-2 production at 3 μM compound concentration >10 ng/mL)”.

In the case of `Cl.N[C@H]1CS(=O)(=O)c2cc(F)c(C(=O)NCCCC(F)(F)F)cc2N(Cc2ccc(OC(F)(F)F)cc2)C1=O` [Example 73, (3R)-3-amino-8-fluoro-1,1,4-trioxo-N-(4,4,4-trifluorobutyl)-5-{[4-(trifluoromethoxy)-phenyl]methyl}-2,3,4,5-tetrahydro-1λ^6,5-benzothiazepine-7-carboxamide hydrochloride], the EC50 [2, 4] is reported as < 1580 nM, the EC50 [2, 5] is reported as < 1580 nM and the EC50 (CD4 T cells) is reported as < 1580 nM. For the same compound, the EC50 (CD8 T cells) was < 1580 nM and the “Activity Class CD4+” value [3] was “A (IL-2 production at 3 μM compound concentration >10 ng/mL)”.
